Earlier results in US20180206486A1, “Stable Agricultural Compositions” (Ceradis B.V., priority 2015, published 2018).

Assays:
[1] = system: downy mildew (Plasmopara viticola); details: in vivo
[2] = system: rodents; details: after oral and dermal administration and inhalatory exposure

## Potassium phosphite
[1]
  effectiveness as fungicide against downy mildew: effective
[2]
  toxicity in rodents: low toxicity
